Conditions: basic group

SMILES | pKa
Cc1cncc(C)n1 | 2.11
CN1CCCC1c1cccnc1 (stereo not drawn) | 8.06
Brc1cncc2ccccc12 | 3.54
Nc1cc(/C=C/c2ccccc2)nc(/C=C/c2ccccc2)c1 | 8.6
CC(=O)Nc1ccc(N)cc1 | 4.46
COc1cc(S(C)=O)ccc1-c1nc2ccccc2[nH]1 (stereo not drawn) | 4.76
CC(C)N(C)C | 10.3
O=CC1c2ccccc2-c2ccccc21 | 6.2
c1nc(Cc2c[nH]c(Cc3nc(Cc4cnc[nH]4)c[nH]3)n2)c[nH]1 | 7.49
Nc1ccc2nc3ccccc3cc2c1 | 5.88
CSC(=N)Nc1ccccc1 | 7.14
N#CCN1CCCCC1 | 4.55
CCCNCC[NH2+]CCC | 7.53
C=O | 1.15
Nc1nc([Se-])c2ncn([C@H]3O[C@@H](CO)[C@H](O)[C@@H]3O)c2n1 | 7.68
CC1=NCCc2c1[nH]c1ccc([N+](=O)[O-])cc21 | 6.37
COCc1ccccc1CN(C)C | 9.19
Cn1cnc2cncnc21 | 2.42
ClC1CC2CCN1CC2 (stereo not drawn) | 6.98
CSCc1cccc(CSC)n1 | 4.19
CN1C2CCC(CC2)N1C | 7.14
Brc1ccccn1 | 0.9

SMILES | pKa
Cc1ncc(C[NH3+])c(N)n1 | 4
C[C@H](N)CCC(=O)[O-] | 10.4
COc1ccc(I)cc1C(=O)N[C@@H]1C[C@H]2CC[C@@H](C1)N2Cc1ccccc1 | 8.79
CCCN(CCC)CC(=O)NC1c2ccccc2-c2ccccc21 | 7.28
Cc1nccnc1C | 2.24
N=C(N)N | 13.1
c1ccc2c(c1)CNCCCNCc1ccccc1OCCCO2 | 10
c1ccnnc1 | 2.33
O=C([O-])C1CCN1 (stereo not drawn) | 9.54
c1ccc(CNc2ncnc3[nH]cnc23)cc1 | 4.09
C[NH+](C)CCC/N=C(\c1ccccc1)c1cccc2ccccc12 | 4.16
C(=C/c1ccncc1)/c1ccccc1 | 5.77
c1cnc2c(c1)ccc1ccc[nH+]c12 | 2.04
COc1ccc(-c2cc3cnccc3[nH]2)c(OC)c1 | 8.49
Clc1ccc(-c2cnc(-c3ccccc3)o2)cc1 | 0.7
CC(C)[C@H]1CC[C@H](C)C[C@@H]1N | 10.6
CC1(N)C[C@]1(C)N (stereo partly drawn) | 9.03
CCCCCCCP(=O)(CCCCCCC)NC1CCCCC1 | 4.87
NCc1nnn[n-]1 | 8.54
Cn1ccnc1 | 7.15
CCNCCC(=O)[O-] | 10.6
Cc1cc(C)c(C[NH3+])cc1N | 4.57

SMILES | pKa
CCCCNc1ccccc1 | 5.11
CN(c1ccccc1)C1CCCCC1 | 6.35
Cc1nc(-c2ccccc2SCc2ccccc2)[nH]c1C | 7
NCCc1ccccn1 | 9.51
CC1CC[C@H](O)[C@@H](N)C1 (stereo partly drawn) | 9.5
CC(C)CN(CC(C)O)CC(C)O (stereo not drawn) | 8.8
Cc1cc[nH]n1 | 3.66
CC[NH+](CC)CCCCCCNc1c2ccc(Cl)cc2nc2ccc(OC)cc12 | 8.12
N/C(CCNc1ccccc1)=N\O | 5.35
CN1CC[C@@]23c4c5ccc(O)c4O[C@]2(C)C(=O)CC[C@@H]3[C@@H]1C5 | 8.08
COCCNc1ccc(OC)cc1 | 5.02
Cc1n[nH]c(C)c1Cl | 2.23
O=C(Cc1cccnc1)c1ccccc1 | 4.87
C#CC(C)(C)NC(C)(C)CC | 9
O=C([O-])CCCc1c[nH]cn1 | 7.62
COC(=O)Cc1ccccc1N | 3.71
CCN(CC)[C@H]1CCC[C@@H]1N(C)C | 9.91
Nc1cccc([I+]c2ccccc2)c1 | 1.87
NCc1cccc(O)c1 | 9.06
[NH3+]CCC(=O)NCCc1c[nH]cn1 | 6.84
Oc1ccc2[nH]cnc2c1 | 5.69
CC(CC(c1ccccc1)c1ccccc1)N1CCOCC1 (stereo not drawn) | 6.9

SMILES | pKa
Cc1ccc(/N=N/c2ccc(N)cc2)cc1 | 3.04
c1cncc(-c2ccncc2)c1 | 4.85
O=C([O-])c1cc2cc(Cn3ccnc3)ccc2s1 | 6.77
CCCCN(CCCC)c1ccccc1 | 6.41
CC(=O)c1ccccc1N | 2.31
CCN(CC)CCCCCCNc1c2ccc(Cl)cc2nc2ccc(OC)cc12 | 10.3
CCCCCC(C)(C)N | 10.8
COc1ccc(-c2cnc(-c3ccc([NH3+])cc3)o2)cc1 | 0.27
N[C@H]1CCC[C@H](O)C1 | 10.1
O=C([O-])[C@@H]1O[C@H](Oc2cccc3ncccc23)[C@@H](O)[C@H](O)[C@H]1O | 4.91
Nc1ccc2cccc([N+](=O)[O-])c2c1 | 2.86
NC1CCN(Cc2ccccc2)CC1 | 9.79
Cc1ccc(N2CCCC(=O)C(O)CCC2)cc1 (stereo not drawn) | 3.2
NCCCC#CC#CCCC(=O)[O-] | 9.94
NNCCOc1ccccc1 | 6.8
c1ccc(-c2cc[nH+]cc2)nc1 | 1.19
CC[NH+](CC)CCNc1cc(C)nc(Nc2ccc(Cl)cc2)n1 | 6.65
Cc1ccc2c(c1)C(CC[NH3+])CN2 (stereo not drawn) | 4.1
CCC(O)CN(C)CC(O)CC (stereo not drawn) | 9
N#CCN1CCOCC1 | 2
O=C1N[C@@H](Cc2cnc[nH]2)C(=O)N[C@H]1Cc1cnc[nH]1 | 6.54
NCCNCCO | 9.67

— the pKa sets of Baltruschat and Czodrowski (2020)
